Literature values, collected in patent publication US20210379001A1, “SUPPLEMENT INCLUDING GAMMA-AMINOBUTYRIC ACID FOR RESTORING GROWTH HORMONE LEVELS” (1198966 B.C. LTD., priority 2020, published 2021).

Test system: GABA levels in rat striatal tissue and striatal extracellular fluid

For `NC(=O)CC[C@H](N)C(=O)O` [L-Glutamine], the “striatal GABA levels” value (2,5 h after oral 2.0 g/kg of glutamine, vehicle-treated rats 1.76+/−0.04) is listed as 2.00 ± 0.15 µmol/g, the “response evoked by NMDA, over baseline” value (ECF GABA, NMDA alone 70%, P<0.05) is listed as 120% and the “increase of ECF GABA concentrations” value (rat striatal extracellular fluid, P<0.05) is listed as 30%.
